Reference: ChEMBL document CHEMBL1137635, “Multiple antibiotics exert delayed effects against the Plasmodium falciparum apicoplast” (Antimicrob Agents Chemother, 2007)
Active and inactive are the calls of the source. The calls are words filed in the database; no cut-off is given here.

Assays:
Plasmodium falciparum [1] = assay: Antimalarial activity as 3rd generation parasitaemia against chloroquine-sensitive Plasmodium falciparum 3D7 infected human erythrocytes after 96 hrs at 100 nM dosed 0-12 hrs post infection; type: functional
Plasmodium falciparum [2] = assay: Antimalarial activity as 3rd generation parasitaemia against chloroquine-sensitive Plasmodium falciparum 3D7 infected human erythrocytes after 96hrs at 100 nM dosed 12-24 hrs post infection; type: functional
Plasmodium falciparum [3] = assay: Antimalarial activity as 3rd generation parasitaemia against chloroquine-sensitive Plasmodium falciparum 3D7 infected human erythrocytes after 96hrs at 100 nM dosed 0-24 hrs post infection; type: functional
Plasmodium falciparum [4] = assay: Antimalarial activity as 3rd generation ring-stage chloroquine-resistant Plasmodium falciparum W2 after 48 hrs dose then 48 hrs drug-free; type: functional, organism-based; conditions: W2, 48 h
Plasmodium falciparum [5] = assay: Antimalarial activity as arrested schizont maturation in chloroquine-sensitive Plasmodium falciparum 3D7 infected human erythrocytes after 48 hrs at 100 nM dosed 96 hrs post infection; type: functional, organism-based
Plasmodium falciparum [6] = assay: Antimalarial activity as 3rd generation parasitaemia against chloroquine-sensitive Plasmodium falciparum 3D7 infected human erythrocytes after 96hrs at 100 nM dosed 36-48 hrs post infection; type: functional
Plasmodium falciparum [7] = assay: Antimalarial activity as parasitaemia against chloroquine-sensitive ACP1-GFP-labeled Plasmodium falciparum 3D7 trophozoite infected human erythrocytes at 2xIC50 dosed 96 hrs post infection; type: functional
Plasmodium falciparum [8] = assay: Antimalarial activity as 2nd generation ring-stage chloroquine-sensitive Plasmodium falciparum 3D7 after 48 hrs by flow cytometry; type: functional, organism-based; conditions: 3D7, 48 h
Plasmodium falciparum [9] = assay: Antimalarial activity as 3rd generation ring-stage chloroquine-sensitive Plasmodium falciparum 3D7 after 48 hrs dose then 48 hrs drug-free; type: functional, organism-based; conditions: 3D7, 48 h
[10] = Cmax in human at 1000 mg, po once daily for 3 days; type: ADME, organism-based; set-up: dose 1000 mg, route oral; conditions: in vivo
Plasmodium falciparum [11] = assay: Antimalarial activity as 3rd generation parasitaemia against chloroquine-sensitive Plasmodium falciparum 3D7 infected human erythrocytes after 96 hrs at 100 nM dosed 0-48 hrs post infection; type: functional
Plasmodium falciparum [12] = assay: Antimalarial activity as segregation of apicoplast in chloroquine-sensitive Plasmodium falciparum 3D7 progeny infected human erythrocytes at 100 nM dosed 96 hrs post infection; type: functional, organism-based
[13] = Tmax in human at 1000 mg, po once daily for 3 days; type: ADME, organism-based; conditions: in vivo
Plasmodium falciparum [14] = assay: Antimalarial activity as 2nd generation ring-stage chloroquine-resistant Plasmodium falciparum W2 after 48 hrs by flow cytometry; type: functional, organism-based; conditions: W2, 48 h
Plasmodium falciparum [15] = assay: Antimalarial activity as segregation of apicoplast in chloroquine-sensitive ACP1-GFP-labeled Plasmodium falciparum 3D7 schizont infected human erythrocytes at 100 nM dosed 96 hrs post infection; type: functional, organism-based
Plasmodium falciparum [16] = assay: Antimalarial activity as 3rd generation parasitaemia against chloroquine-sensitive Plasmodium falciparum 3D7 infected human erythrocytes after 96hrs at 100 nM dosed 12-48 hrs post infection; type: functional
Plasmodium falciparum [17] = assay: Antimalarial activity as 3rd generation parasitaemia against chloroquine-sensitive Plasmodium falciparum 3D7 infected human erythrocytes after 96hrs at 100 nM dosed 24-36 hrs post infection; type: functional
Plasmodium falciparum [18] = assay: Antimalarial activity as 3rd generation parasitaemia against chloroquine-sensitive Plasmodium falciparum 3D7 infected human erythrocytes assessed after 96hrs at 100 nM dosed 12-36 hrs post infection; type: functional
[19] = Half life in human at 1000 mg, po once daily for 3 days; type: ADME, organism-based; conditions: in vivo
Plasmodium falciparum [20] = assay: Antimalarial activity as 3rd generation parasitaemia against chloroquine-sensitive Plasmodium falciparum 3D7 infected human erythrocytes after 96hrs at 100 nM dosed 0-36 hrs post infection; type: functional
Plasmodium falciparum [21] = assay: Antimalarial activity as 3rd generation parasitaemia against chloroquine-sensitive Plasmodium falciparum 3D7 infected human erythrocytes after 96hrs at 100 nM dosed 24-48 hrs post infection; type: functional
Plasmodium falciparum [22] = assay: Antimalarial activity as abnormal apicoplast morphology in chloroquine-sensitive ACP1-GFP-labeled Plasmodium falciparum 3D7 trophozoite infected human erythrocytes at 2xIC50 dosed 96 hrs post infection; type: functional
[23] = Cmax in patient with kidney disease at 300 mg, po; type: ADME, organism-based; set-up: dose 300 mg, route oral; conditions: human, in vivo
Homo sapiens = assay: Half life in patient with kidney disease at 300 mg, po; type: ADME, organism-based; conditions: in vivo
[24] = Tmax in patient with kidney disease at 300 mg, po; type: ADME, organism-based; conditions: human, in vivo
Plasmodium falciparum [25] = assay: Antimalarial activity as segregation of apicoplasts against chloroquine-sensitive Plasmodium falciparum 3D7 infected human erythrocytes at 25 nM 96 hrs post infection; type: functional, organism-based
Plasmodium falciparum [26] = assay: Antimalarial activity as segregation of apicoplast in chloroquine-sensitive ACP1-GFP-labeled Plasmodium falciparum 3D7 schizont infected human erythrocytes at 25 nM dosed 96 hrs post infection; type: functional, organism-based
Plasmodium falciparum [27] = assay: Antimalarial activity as 3rd generation parasitaemia against chloroquine-sensitive Plasmodium falciparum 3D7 infected human erythrocytes after 96hrs at 25 nM dosed 0-12 hrs post infection; type: functional
Plasmodium falciparum [28] = assay: Antimalarial activity as 3rd generation parasitaemia against chloroquine-sensitive Plasmodium falciparum 3D7 infected human erythrocytes after 96hrs at 25 nM dosed 12-48 hrs post infection; type: functional
Plasmodium falciparum [29] = assay: Antimalarial activity as 3rd generation parasitaemia against chloroquine-sensitive Plasmodium falciparum 3D7 infected human erythrocytes after 96hrs at 25 nM dosed 24-36 hrs post infection; type: functional
Plasmodium falciparum [30] = assay: Antimalarial activity as 3rd generation parasitaemia against chloroquine-sensitive Plasmodium falciparum 3D7 infected human erythrocytes after 96hrs at 25 nM dosed 12-24 hrs post infection; type: functional
Plasmodium falciparum [31] = assay: Antimalarial activity as 3rd generation parasitaemia against chloroquine-sensitive Plasmodium falciparum 3D7 infected human erythrocytes after 96hrs at 25 nM dosed 0-24 hrs post infection; type: functional
Plasmodium falciparum [32] = assay: Antimalarial activity in chloroquine-sensitive ACP1-GFP-labeled Plasmodium falciparum 3D7 after 48 hrs at 2xIC50 dosed 96 hrs post infection; type: functional, organism-based
Plasmodium falciparum [33] = assay: Antimalarial activity as abnormal apicoplast morphology in chloroquine-sensitive ACP1-GFP-labeled Plasmodium falciparum 3D7 after 48 hrs at 2xIC50 dosed 96 hrs post infection; type: functional, organism-based
Plasmodium falciparum [34] = assay: Antimalarial activity as 3rd generation parasitaemia against chloroquine-sensitive Plasmodium falciparum 3D7 infected human erythrocytes after 96hrs at 25 nM dosed 0-48 hrs post infection; type: functional
Plasmodium falciparum [35] = assay: Antimalarial activity as 3rd generation parasitaemia against chloroquine-sensitive Plasmodium falciparum 3D7 infected human erythrocytes after 96hrs at 25 nM dosed 0-36 hrs post infection; type: functional
Plasmodium falciparum [36] = assay: Antimalarial activity as 3rd generation parasitaemia after 96 hrs against chloroquine-sensitive Plasmodium falciparum 3D7 infected human erythrocytes at 25 nM 36-48 hrs post invasion; type: functional
Plasmodium falciparum [37] = assay: Antimalarial activity as3rd generation parasitaemia against chloroquine-sensitive Plasmodium falciparum 3D7 infected human erythrocytes after 96 hrs at 25 nM dosed 12-36 hrs post infection; type: functional
Plasmodium falciparum [38] = assay: Antimalarial activity as arrested schizont maturation in chloroquine-sensitive Plasmodium falciparum 3D7 infected human erythrocytes after 48 hrs at 25 nM dosed 96 hrs post infection; type: functional, organism-based
Plasmodium falciparum [39] = assay: Antimalarial activity as 3rd generation parasitaemia against chloroquine-sensitive Plasmodium falciparum 3D7 infected human erythrocytes after 96 hr at 25 nM dosed 24-48 hrs post infection; type: functional
Plasmodium falciparum [40] = assay: Antimalarial activity as 3rd generation parasitaemia against chloroquine-sensitive Plasmodium falciparum 3D7 infected human erythrocytes after 96hrs at 6 uM dosed 24-36 hrs post infection; type: functional
Plasmodium falciparum [41] = assay: Antimalarial activity as 3rd generation parasitaemia against chloroquine-sensitive Plasmodium falciparum 3D7 infected human erythrocytes after 96hrs at 6 uM dosed 36-48 hrs post infection; type: functional
Plasmodium falciparum [42] = assay: Antimalarial activity as 3rd generation parasitaemia against chloroquine-sensitive Plasmodium falciparum 3D7 infected human erythrocytes after 96hrs at 6 uM dosed 24-48 hrs post infection; type: functional
Plasmodium falciparum [43] = assay: Antimalarial activity as 3rd generation parasitaemia against chloroquine-sensitive Plasmodium falciparum 3D7 infected human erythrocytes after 96hrs at 6 uM dosed 12-36 hrs post infection; type: functional
Plasmodium falciparum [44] = assay: Antimalarial activity as 3rd generation parasitaemia against chloroquine-sensitive Plasmodium falciparum 3D7 infected human erythrocytes after 96hrs at 6 uM dosed 12-48 hrs post infection; type: functional
Plasmodium falciparum [45] = assay: Antimalarial activity as 3rd generation after 96 hrs against chloroquine-sensitive Plasmodium falciparum 3D7 infected human erythrocytes at 6 uM 0-48 hrs post invasion; type: functional
Plasmodium falciparum [46] = assay: Antimalarial activity as 3rd generation parasitaemia against chloroquine-sensitive Plasmodium falciparum 3D7 infected human erythrocytes after 96hrs at 6 uM dosed 0-24 hrs post infection; type: functional
Plasmodium falciparum [47] = assay: Antimalarial activity as 3rd generation parasitaemia against chloroquine-sensitive Plasmodium falciparum 3D7 infected human erythrocytes after 96hrs at 6 uM dosed 0-12 hrs post infection; type: functional
Plasmodium falciparum [48] = assay: Antimalarial activity as segregation of apicoplasts against chloroquine-sensitive ACP1-GFP-labeled Plasmodium falciparum 3D7 schizont infected human erythrocytes at 6 uM 96 hrs post infection; type: functional, organism-based
Plasmodium falciparum [49] = assay: Antimalarial activity as 3rd generation parasitaemia against chloroquine-sensitive Plasmodium falciparum 3D7 infected human erythrocytes after 96hrs at 6 uM dosed 12-24 hrs post infection; type: functional
Plasmodium falciparum [50] = assay: Antimalarial activity as schizont arrest after 48 hrs in chloroquine-sensitive Plasmodium falciparum 3D7 infected human erythrocytes at 6 uM 96 hrs post invasion by Giemsa staining; type: functional, organism-based
[51] = Tmax in patient with bronchitis at 500 mg, po twice daily for 3 days; conditions: human, in vivo
[52] = Cmax in patient with bronchitis at 500 mg, po twice daily for 3 days; conditions: human, in vivo
Plasmodium falciparum [53] = assay: Antimalarial activity as 3rd generation parasitaemia against chloroquine-sensitive Plasmodium falciparum 3D7 infected human erythrocytes after 96hrs at 6 uM dosed 0-36 hrs post infection; type: functional
Plasmodium falciparum [54] = assay: Antimalarial activity as segregation of apicoplasts against chloroquine-sensitive Plasmodium falciparum 3D7 infected in human erythrocytes at 6 uM 96 hrs post infection; type: functional, organism-based

CC[C@H]1OC(=O)[C@H](C)[C@@H](O[C@H]2C[C@@](C)(OC)[C@@H](O)[C@H](C)O2)[C@H](C)[C@@H](O[C@@H]2O[C@H](C)C[C@H](N(C)C)[C@H]2O)[C@](C)(O)C[C@@H](C)CN(C)[C@H](C)[C@@H](O)[C@]1(C)O [AZITHROMYCIN]
Activity (Plasmodium falciparum [1]): 91%
Activity (Plasmodium falciparum [2]): 59%
Activity (Plasmodium falciparum [3]): 61%
IC50 (Plasmodium falciparum [4]; read-out: IC50): 31 nM
Activity (Plasmodium falciparum [5]): inactive
Activity (Plasmodium falciparum [6]): 113%
Activity (Plasmodium falciparum [7]): 105%
IC50 (Plasmodium falciparum [8]): 8670 nM
IC50 (Plasmodium falciparum [9]): 52.7 nM
Cmax [10]: 1100 nM
Activity (Plasmodium falciparum [11]): 17%
Activity (Plasmodium falciparum [12]): Active
Tmax [13]: 2.4 h
IC50 (Plasmodium falciparum [14]): 1460 nM
Activity (Plasmodium falciparum [15]): Active
Activity (Plasmodium falciparum [16]): 18%
Activity (Plasmodium falciparum [17]): 79%
Activity (Plasmodium falciparum [18]): 28%
half-life [19]: 74 h
Activity (Plasmodium falciparum [20]): 30%
Activity (Plasmodium falciparum [21]): 68%
Activity (Plasmodium falciparum [22]): 83.4%

CCN(CC)CCCC(C)Nc1ccnc2cc(Cl)ccc12 (configuration not stated) [CHLOROQUINE]
Cmax [23]: 240 nM
t1/2 (Homo sapiens): 240 h
Tmax [24]: 6.6 h

CCC[C@@H]1C[C@@H](C(=O)N[C@@H]([C@H]2O[C@H](SC)[C@H](O)[C@@H](O)[C@H]2O)[C@H](C)Cl)N(C)C1 [CLINDAMYCIN]
Activity (Plasmodium falciparum [25]): Active
Activity (Plasmodium falciparum [26]): Active
IC50 (Plasmodium falciparum [4]; read-out: IC50): 3.12 nM
Activity (Plasmodium falciparum [27]): 87%
Activity (Plasmodium falciparum [28]): 19%
Activity (Plasmodium falciparum [7]): 99.3%
IC50 (Plasmodium falciparum [8]): > 100000 nM
IC50 (Plasmodium falciparum [9]): 8.81 nM
Activity (Plasmodium falciparum [29]): 52%
Activity (Plasmodium falciparum [30]): 41%
Activity (Plasmodium falciparum [31]): 49%
Activity (Plasmodium falciparum [32]): Active
Activity (Plasmodium falciparum [33]): Active
IC50 (Plasmodium falciparum [14]): > 100000 nM
Activity (Plasmodium falciparum [34]): 11%
Activity (Plasmodium falciparum [35]): 21%
Activity (Plasmodium falciparum [36]): 63%
Activity (Plasmodium falciparum [37]): 15%
Activity (Plasmodium falciparum [38]): inactive
Activity (Plasmodium falciparum [22]): 85.2%
Activity (Plasmodium falciparum [39]): 78%

O=C(O)c1cn(C2CC2)c2cc(N3CCNCC3)c(F)cc2c1=O [CIPROFLOXACIN]
Activity (Plasmodium falciparum [40]): 70%
Activity (Plasmodium falciparum [41]): 108%
Activity (Plasmodium falciparum [42]): 74%
IC50 (Plasmodium falciparum [4]): 1750 nM
Activity (Plasmodium falciparum [43]): 23%
Activity (Plasmodium falciparum [44]): 24%
Activity (Plasmodium falciparum [45]): 13%
Activity (Plasmodium falciparum [7]): 98.6%
IC50 (Plasmodium falciparum [8]): 9440 nM
IC50 (Plasmodium falciparum [9]): 3040 nM
Activity (Plasmodium falciparum [46]): 67%
Activity (Plasmodium falciparum [47]): 80%
Activity (Plasmodium falciparum [48]): Active
Activity (Plasmodium falciparum [49]): 63%
IC50 (Plasmodium falciparum [14]): 24900 nM
Activity (Plasmodium falciparum [50]): inactive
Tmax at 72 h [51]: 0.6 h
Cmax at 72 h [52]: 7600 nM
Activity (Plasmodium falciparum [22]): 81.4%
Activity (Plasmodium falciparum [53]): 35%
Activity (Plasmodium falciparum [54]): Active
